Measurements taken from paper PMC9510668 (Frontiers in Pharmacology, 2022).
Where two headings read alike, the source gives them in different places.

Experiments:
UGT1A1 = details: ref Xu et al., 2010; cited from earlier work
CYP3A4 = details: 2020, cited from earlier work
[1] = ref Food and Drug Administration, 2009, cited from earlier work
BCRP1 = BCRP1 efflux transport; format: in vitro ADME; details: calculated from literature data, PAZ 5 μM, 60-120 min; ref Minocha et al., 2012
OCT2 = test system: OCT2; parameters: method as in Sauzay et al., 2016; details: ref Sauzay et al., 2016; cited from earlier work
OATP1B1 = details: ref Xu et al., 2010; cited from earlier work
[2] = cited from earlier work
P-gp = test system: P-gp; parameters: method as in Minocha et al., 2012; Boudou-Rouquette et al., 2016; details: in vitro; ref Minocha et al., 2012; Boudou-Rouquette et al., 2016; cited from earlier work
OCT1 = test system: OCT1; parameters: method as in Ellawatty et al., 2018; details: ref Ellawatty et al., 2018; cited from earlier work
[3] = cited from earlier work; remark: listed apart in the source
[4] = Effect of NaTC (bile salt) concentration on solubility; format: physicochemical; details: for solubility at 2 h: pH 5.5, read-out: Solubility at Fasted state
Method: After incubation of 2 h, 1 ml aliquot of each sample was withdrawn from the tube. The samples were filtered using a 0.22 μm filter, the first 0.8 ml was discarded, and the remaining 0.2 ml was analyzed by the HPLC. The specific experiments containing different conditions are as follows: • i) Solubility testing in simulated fasted and fed media
In this experiment, a final pH of 5.5 was used, representing a mean front luminal pH at fed state.

[5] = Physicochemical parameters (literature / model input); details: mean value of literature values, used in the model
Caco-2 cell = test system: Caco-2 cell; parameters: method as in Food and Drug Administration, 2009; details: ref Food and Drug Administration, 2009; cited from earlier work

BCRP1 Vmax (BCRP1): 2.5 pmol/min | Increase of solubility with NaTC ([4]; 15 mM compared with 30 mM NaTC): about 4 fold | solubility at 2 h ([4]; biorelevant medium with sodium taurocholate (NaTC), 37 °C, pH 5.5, fassgf or other biorelevant, thermodynamic from solid, NaTC 3.75 mM): 1.51 µg/mL | solubility at 2 h ([4]; biorelevant medium with sodium taurocholate (NaTC), 37 °C, pH 5.5, fassgf or other biorelevant, thermodynamic from solid, NaTC 15 mM): 6.93 µg/mL | solubility at 2 h ([4]; biorelevant medium with sodium taurocholate (NaTC), 37 °C, pH 5.5, fassgf or other biorelevant, thermodynamic from solid, NaTC 30 mM): 27.9 µg/mL | solubility at 2 h ([4]; biorelevant medium with sodium taurocholate (NaTC), pH 5.5, NaTC 7.5 mM): 3.02 µg/mL | solubility at 2 h ([4]; medium with 0 mM NaTC, 37 °C, pH 5.5, fassgf or other biorelevant, thermodynamic from solid, NaTC 0 mM): 0.36 µg/mL | LogP [5]: 3.49
SMILES: Cc1ccc(Nc2nccc(N(C)c3ccc4c(C)n(C)nc4c3)n2)cc1S(N)(=O)=O [PAZ, pazopanib]
IC50 (UGT1A1): 1.2 µM | Inducer of CYP3A4 (CYP3A4; ref Food and Drug Administration, 2009, Yamada et al.): moderate inducer | Emax CYP3A4, maximum inductive effect (CYP3A4; ref Yamada et al.): 2.43 µM | Incidence of high blood pressure ([1]; Ctrough above 32 μg/ml): ~80% | Probability of ALT elevation ([1]; Ctrough above approximately 56 μg/ml): ~20% | Cmax threshold of clinical exposure-toxicity [1]: less than 56 μg/ml | Ctrough needed for sufficient clinical response [1]: above 15 μg/ml | Ctrough threshold of clinical exposure-toxicity [1]: < 32000 ng/mL | Ki (OCT2): 3 µM | IC50 (OATP1B1): 0.79 µM | Mean oral bioavailability ([2]; oral 800 mg dose in humans, ref Deng et al., 2013): approximately 21.4% | Elimination via feces, administered radioactivity dose ([2]; ref Deng et al., 2013): approximately 82.2% | Elimination via feces, unchanged drug ([2]; ref Deng et al., 2013): 67% | Renal elimination, of the administered dose ([2]; ref Deng et al., 2013): approximately 2.6% | Higher bioavailability of 400 mg dose than 800 mg dose ([2]; ref Food and Drug Administration, 2009): 40% | Substrate for efflux transporter P-gp (P-gp): weak substrate | Km (OCT1): 3.47 µM | OCT1 Vmax (OCT1): 530 pmol/min/mg protein | Increase in AUC of PAZ ([3]; co-administration with ketoconazole, ref Van Leeuwen et al., 2014): approximately 66% | Decrease in AUC of PAZ ([3]; combined with carbamazepine, ref Van Leeuwen et al., 2014): 30% | Reduction of oral bioavailability ([3]; concomitant drugs that increase gastric pH, ref Budha et al., 2012): approximately 39% | Increase in AUC of PAZ ([3]; with lapatinib, ref Van Leeuwen et al., 2014): 59% | Papp, Caco-2 cell permeability (Caco-2 cell): 16.9 ✕10^−6 cm⋅s^−1
